Calls of active or inactive are those of the source.
Key:
[1] = biological target: Protein-tyrosine kinase 2-beta (Homo sapiens, UniProt Q14289);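 also: potency of inhibitors of PYK2 kinase phosphorylation of poly-GT substrate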
[2] = rise of 2N DNA cells, HeLa – IC50, dose response (AID 1117349); type: functional, cell-based
[3] = CellTiter-Glo luminescence survival assay, SW480 colon tumor line, concentration-response curve, half-maximal inhibitory concentration (AID 1117338); type: functional
[4] = RKO cell viability reduction, dose response, CellTiter-Glo luminescence (AID 1117322); type: functional
[5] = cytotoxicity toward HCT116 cells – cell-based, CellTiter-Glo luminescence, IC50, dose response (AID 1117332); type: functional; conditions: HCT-116
[6] = SNU-C1 cell viability reduction, dose response, CellTiter-Glo luminescence (AID 1117323); type: functional, cell-based
[7] = cytotoxicity toward Colo320 cells – cell-based, CellTiter-Glo luminescence, IC50, dose response (AID 1117334); type: functional; conditions: COLO 320
[8] = rise of 4N DNA cells, HeLa – IC50, dose response (AID 1117351); type: functional, cell-based
[9] = cytotoxicity toward HT-29 cells – cell-based, CellTiter-Glo luminescence, IC50, dose response (AID 1117330); type: functional
[10] = Reduced DLD-1 viability, concentration-response, CellTiter-Glo luminescence (AID 1117352); type: functional
[11] = HCT116 cell viability decrease, GSK3B pretreatment – CellTiter-Glo, IC50, dose response (AID 1117339); type: functional; conditions: HCT-116
[12] = biological target: T1, Tyrosine-protein phosphatase non-receptor type 7 (Homo sapiens, UniProt P35236); test: HePTP tyrosine phosphatase activity blockers – biochemical, absorbance, leukemia target, primary screen (AID 521); type: functional
T1 sequence (P35236 whole entry): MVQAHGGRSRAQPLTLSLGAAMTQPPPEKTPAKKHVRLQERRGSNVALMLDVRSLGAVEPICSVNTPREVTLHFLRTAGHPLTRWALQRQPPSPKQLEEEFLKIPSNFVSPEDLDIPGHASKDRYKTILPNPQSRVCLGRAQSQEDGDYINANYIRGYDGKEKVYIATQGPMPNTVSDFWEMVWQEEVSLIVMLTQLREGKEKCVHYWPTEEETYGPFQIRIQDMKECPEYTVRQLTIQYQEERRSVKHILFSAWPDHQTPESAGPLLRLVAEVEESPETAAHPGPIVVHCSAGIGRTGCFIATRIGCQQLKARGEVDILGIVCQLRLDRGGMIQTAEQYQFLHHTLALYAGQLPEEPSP

[13] = biological target: Voltage-gated inwardly rectifying potassium channel KCNH2 (Homo sapiens, UniProt Q12809); test: concentration-dependent hERG rescue from blockers – cell-based, thallium flux, dose response (AID 2121); type: ADME
[14] = cells; type: functional, cell-based
[15] = biological target: T2, Nuclear receptor subfamily 0 group B member 1 (Homo sapiens, UniProt P51843); type: functional, cell-based;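 also: HEK293T cells transfected with SF-1 and DAX-1 plus StAR promoter luciferase reporter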
T2 sequence (P51843 whole entry): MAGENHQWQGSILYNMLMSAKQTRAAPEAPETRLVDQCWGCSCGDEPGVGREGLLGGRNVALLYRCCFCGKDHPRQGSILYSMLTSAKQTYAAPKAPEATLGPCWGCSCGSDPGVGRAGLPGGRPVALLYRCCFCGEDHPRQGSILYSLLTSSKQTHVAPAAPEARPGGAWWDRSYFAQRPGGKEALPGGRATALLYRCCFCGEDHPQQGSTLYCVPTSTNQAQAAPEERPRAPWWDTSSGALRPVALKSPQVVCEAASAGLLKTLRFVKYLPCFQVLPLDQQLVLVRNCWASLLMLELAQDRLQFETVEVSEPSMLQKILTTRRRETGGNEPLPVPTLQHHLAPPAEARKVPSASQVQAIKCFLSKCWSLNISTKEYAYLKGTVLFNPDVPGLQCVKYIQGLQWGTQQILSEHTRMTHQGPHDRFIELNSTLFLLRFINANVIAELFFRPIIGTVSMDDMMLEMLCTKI

[16] = biological target: Major prion protein (Homo sapiens, UniProt P04156); type: functional, cell-based
[17] = cells
[18] = biological target: E3 ubiquitin-protein ligase Mdm2 (Homo sapiens, UniProt Q00987); test: MDM2-luc reporter signal enhancers, multi-concentration potency testing, MDM2 ubiquitin-protein ligase inhibitor program, whole-cell format, luminescence detection, 384-well microplate (AID 1394); type: functional;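 also: MDM2 E3 inhibitors raise luminescence so EC50 is for signal enhancement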
[19] = biological target: G-protein coupled receptor 55 (Homo sapiens, UniProt Q9Y2T6); test: inhibition of LPI-stimulated GPR55 beta-arrestin translocation – imaging, U2OS, beta-arrestin-GFP, LPI agonist, primary screen (AID 2013); type: functional;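 also: antagonist potency measured as reduced agonist-driven arrestin aggregation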
[20] = biological target: T3, Replicative DNA helicase DnaB (Mycobacterium tuberculosis, UniProt P9WMR3); test: DnaB intein splicing inhibitors, dose response, biochemical, cell-free fluorescence (AID 449749); type: functional
T3 sequence (P9WMR3 whole entry): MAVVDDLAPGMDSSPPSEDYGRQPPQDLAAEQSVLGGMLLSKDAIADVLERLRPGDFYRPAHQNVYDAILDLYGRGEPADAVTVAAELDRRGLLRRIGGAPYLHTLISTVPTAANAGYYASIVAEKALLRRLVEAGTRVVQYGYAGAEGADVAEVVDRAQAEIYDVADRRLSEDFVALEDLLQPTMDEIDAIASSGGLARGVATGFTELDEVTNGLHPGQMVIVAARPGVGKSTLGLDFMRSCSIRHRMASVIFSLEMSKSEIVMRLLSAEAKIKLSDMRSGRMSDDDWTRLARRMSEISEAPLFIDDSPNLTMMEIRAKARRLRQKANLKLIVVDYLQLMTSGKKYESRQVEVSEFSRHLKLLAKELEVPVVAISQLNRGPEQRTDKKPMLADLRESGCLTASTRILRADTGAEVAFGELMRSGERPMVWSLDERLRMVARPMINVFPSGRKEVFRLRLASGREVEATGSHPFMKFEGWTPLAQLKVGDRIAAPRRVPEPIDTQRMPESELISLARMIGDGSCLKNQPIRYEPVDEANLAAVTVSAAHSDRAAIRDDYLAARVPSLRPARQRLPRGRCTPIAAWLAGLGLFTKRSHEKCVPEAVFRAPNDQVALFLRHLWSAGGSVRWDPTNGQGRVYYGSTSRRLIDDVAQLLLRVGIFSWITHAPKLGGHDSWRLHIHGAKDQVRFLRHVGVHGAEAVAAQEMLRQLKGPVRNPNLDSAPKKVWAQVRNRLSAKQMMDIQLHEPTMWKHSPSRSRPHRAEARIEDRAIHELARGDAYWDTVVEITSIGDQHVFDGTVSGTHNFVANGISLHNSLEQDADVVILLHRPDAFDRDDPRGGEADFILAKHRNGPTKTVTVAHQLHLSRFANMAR

[21] = biological target: T4, Protein RecA (Mycobacterium tuberculosis, UniProt P9WHJ3); test: Fluorescence Cell-Free Homogeneous Dose Retest to Identify Inhibitors of RecA-Intein Splicing Activity. [Related pubchem assays (depositor defined):AID2097, AID2223, AID489010, AID492950]; type: functional
T4 sequence (P9WHJ3 whole entry): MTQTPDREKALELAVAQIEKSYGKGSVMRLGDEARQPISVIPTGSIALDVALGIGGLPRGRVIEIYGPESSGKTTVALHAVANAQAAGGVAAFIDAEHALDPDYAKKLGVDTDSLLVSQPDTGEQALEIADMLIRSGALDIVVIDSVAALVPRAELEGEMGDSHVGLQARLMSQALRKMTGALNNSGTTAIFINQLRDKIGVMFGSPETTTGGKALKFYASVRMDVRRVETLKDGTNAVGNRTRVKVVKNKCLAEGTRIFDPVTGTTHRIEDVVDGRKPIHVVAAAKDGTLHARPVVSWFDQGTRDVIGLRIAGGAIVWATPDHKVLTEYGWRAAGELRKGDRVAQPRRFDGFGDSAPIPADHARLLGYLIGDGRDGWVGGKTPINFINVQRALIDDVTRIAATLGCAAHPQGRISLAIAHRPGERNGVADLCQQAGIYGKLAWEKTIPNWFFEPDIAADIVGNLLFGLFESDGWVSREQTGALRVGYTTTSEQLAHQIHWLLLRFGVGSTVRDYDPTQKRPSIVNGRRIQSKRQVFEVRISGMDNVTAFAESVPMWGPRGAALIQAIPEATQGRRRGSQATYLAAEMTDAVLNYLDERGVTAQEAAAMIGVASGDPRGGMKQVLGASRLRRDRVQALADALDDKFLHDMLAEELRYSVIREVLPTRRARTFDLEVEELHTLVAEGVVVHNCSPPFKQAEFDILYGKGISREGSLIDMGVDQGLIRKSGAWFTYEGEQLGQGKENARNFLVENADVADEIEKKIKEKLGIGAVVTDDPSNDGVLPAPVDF

[22] = biological target: Ubiquitin carboxyl-terminal hydrolase BAP1 (Homo sapiens, UniProt Q92560); test: inhibition of BAP1 ubiquitin hydrolase activity – biochemical, dose response (AID 714); type: functional
Sequence of Ubiquitin carboxyl-terminal hydrolase BAP1 (Q92560 whole entry): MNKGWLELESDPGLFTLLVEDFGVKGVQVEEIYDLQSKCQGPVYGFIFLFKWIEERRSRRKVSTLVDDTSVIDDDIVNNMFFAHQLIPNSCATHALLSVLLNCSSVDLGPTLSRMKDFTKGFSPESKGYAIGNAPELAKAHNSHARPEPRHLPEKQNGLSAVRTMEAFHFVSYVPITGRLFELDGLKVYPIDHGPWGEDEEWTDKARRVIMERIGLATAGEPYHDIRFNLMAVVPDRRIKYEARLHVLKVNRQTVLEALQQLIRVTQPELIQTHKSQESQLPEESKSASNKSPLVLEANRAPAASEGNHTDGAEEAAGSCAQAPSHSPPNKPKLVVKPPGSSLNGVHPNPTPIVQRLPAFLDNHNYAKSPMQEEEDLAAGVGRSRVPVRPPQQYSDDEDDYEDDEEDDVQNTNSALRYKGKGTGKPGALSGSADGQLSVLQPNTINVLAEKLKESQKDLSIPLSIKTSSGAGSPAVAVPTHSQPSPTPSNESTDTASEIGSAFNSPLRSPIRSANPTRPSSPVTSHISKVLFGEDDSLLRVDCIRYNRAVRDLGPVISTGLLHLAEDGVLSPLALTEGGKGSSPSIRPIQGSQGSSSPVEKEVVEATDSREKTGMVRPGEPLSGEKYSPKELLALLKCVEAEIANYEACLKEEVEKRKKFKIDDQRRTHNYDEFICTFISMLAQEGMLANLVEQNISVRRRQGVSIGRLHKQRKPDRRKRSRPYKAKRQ

Sequence of G-protein coupled receptor 55 (Q9Y2T6 whole entry): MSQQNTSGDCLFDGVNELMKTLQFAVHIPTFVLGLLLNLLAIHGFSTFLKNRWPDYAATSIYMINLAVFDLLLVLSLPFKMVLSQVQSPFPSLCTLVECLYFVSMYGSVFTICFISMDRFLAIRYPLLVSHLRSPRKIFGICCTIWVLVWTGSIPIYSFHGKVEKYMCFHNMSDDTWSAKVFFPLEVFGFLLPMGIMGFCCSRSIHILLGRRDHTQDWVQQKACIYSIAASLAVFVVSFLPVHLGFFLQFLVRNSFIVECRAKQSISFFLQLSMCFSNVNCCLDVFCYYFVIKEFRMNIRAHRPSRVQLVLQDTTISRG
Sequence of Voltage-gated inwardly rectifying potassium channel KCNH2 (Q12809 whole entry): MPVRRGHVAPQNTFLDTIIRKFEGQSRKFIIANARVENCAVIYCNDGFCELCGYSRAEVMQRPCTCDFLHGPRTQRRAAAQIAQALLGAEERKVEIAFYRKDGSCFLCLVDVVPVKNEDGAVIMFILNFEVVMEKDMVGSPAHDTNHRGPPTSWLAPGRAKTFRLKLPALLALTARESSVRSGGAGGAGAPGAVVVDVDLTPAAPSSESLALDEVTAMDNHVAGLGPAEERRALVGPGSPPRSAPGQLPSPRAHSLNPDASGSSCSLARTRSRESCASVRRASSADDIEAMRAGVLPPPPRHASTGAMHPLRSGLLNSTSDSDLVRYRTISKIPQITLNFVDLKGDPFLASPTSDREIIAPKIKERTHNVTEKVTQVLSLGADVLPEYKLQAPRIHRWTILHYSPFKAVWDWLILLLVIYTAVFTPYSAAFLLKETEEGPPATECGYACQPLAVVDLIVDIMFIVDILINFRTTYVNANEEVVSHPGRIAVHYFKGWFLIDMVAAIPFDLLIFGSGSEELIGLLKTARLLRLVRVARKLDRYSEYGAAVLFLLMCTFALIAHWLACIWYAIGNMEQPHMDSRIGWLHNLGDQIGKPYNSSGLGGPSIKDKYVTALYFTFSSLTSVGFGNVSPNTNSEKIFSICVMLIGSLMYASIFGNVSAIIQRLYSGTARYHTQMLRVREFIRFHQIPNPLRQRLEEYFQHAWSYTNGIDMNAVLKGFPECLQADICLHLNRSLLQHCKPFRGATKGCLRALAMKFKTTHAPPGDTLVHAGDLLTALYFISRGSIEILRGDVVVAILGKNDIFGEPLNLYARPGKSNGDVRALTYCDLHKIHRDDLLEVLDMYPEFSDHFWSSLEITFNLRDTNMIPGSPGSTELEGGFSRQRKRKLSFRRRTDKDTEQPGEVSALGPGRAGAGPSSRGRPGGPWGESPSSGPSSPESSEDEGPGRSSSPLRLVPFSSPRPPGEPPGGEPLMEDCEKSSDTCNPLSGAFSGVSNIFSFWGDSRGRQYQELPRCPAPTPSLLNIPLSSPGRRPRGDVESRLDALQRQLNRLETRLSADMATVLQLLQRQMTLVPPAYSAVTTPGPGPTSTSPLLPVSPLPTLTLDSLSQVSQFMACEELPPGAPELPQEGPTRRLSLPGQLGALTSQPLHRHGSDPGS
Sequence of E3 ubiquitin-protein ligase Mdm2 (Q00987 whole entry): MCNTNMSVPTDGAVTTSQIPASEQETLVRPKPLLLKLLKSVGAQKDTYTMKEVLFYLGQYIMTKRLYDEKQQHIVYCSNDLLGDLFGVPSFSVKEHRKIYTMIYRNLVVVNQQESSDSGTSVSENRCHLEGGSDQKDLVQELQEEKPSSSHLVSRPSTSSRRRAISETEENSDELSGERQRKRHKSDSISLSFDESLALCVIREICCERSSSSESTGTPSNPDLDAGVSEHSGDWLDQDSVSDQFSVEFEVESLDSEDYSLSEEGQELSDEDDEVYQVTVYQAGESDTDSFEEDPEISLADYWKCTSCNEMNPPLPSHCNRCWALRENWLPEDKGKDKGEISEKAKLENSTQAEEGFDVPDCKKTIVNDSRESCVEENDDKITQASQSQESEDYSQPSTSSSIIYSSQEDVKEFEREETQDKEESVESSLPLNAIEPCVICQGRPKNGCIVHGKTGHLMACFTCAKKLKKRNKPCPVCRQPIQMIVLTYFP
Sequence of Protein-tyrosine kinase 2-beta (Q14289 whole entry): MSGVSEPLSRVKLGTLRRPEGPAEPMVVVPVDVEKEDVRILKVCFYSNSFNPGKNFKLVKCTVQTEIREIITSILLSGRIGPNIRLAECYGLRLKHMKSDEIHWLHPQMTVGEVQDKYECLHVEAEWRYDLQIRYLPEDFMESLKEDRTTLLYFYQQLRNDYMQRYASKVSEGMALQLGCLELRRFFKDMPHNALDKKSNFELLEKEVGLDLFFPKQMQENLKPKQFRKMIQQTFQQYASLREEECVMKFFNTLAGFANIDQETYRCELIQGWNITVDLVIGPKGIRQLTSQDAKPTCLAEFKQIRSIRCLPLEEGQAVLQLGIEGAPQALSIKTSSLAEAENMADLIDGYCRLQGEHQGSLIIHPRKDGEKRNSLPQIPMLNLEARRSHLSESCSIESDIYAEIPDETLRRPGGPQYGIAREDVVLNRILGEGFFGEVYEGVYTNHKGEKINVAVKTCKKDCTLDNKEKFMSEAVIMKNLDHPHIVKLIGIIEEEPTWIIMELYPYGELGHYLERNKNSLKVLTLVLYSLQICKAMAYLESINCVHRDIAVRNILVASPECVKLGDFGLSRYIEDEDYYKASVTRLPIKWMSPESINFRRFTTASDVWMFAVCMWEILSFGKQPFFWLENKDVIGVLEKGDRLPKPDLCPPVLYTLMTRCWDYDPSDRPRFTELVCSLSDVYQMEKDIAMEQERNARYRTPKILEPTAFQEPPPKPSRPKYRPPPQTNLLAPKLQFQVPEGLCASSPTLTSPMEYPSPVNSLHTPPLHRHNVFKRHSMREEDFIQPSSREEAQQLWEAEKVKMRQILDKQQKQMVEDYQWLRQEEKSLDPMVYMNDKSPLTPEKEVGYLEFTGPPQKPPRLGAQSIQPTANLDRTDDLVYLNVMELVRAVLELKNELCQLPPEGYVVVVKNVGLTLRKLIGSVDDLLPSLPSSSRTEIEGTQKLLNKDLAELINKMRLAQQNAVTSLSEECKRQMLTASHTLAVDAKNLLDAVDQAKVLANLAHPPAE

O=C(OCCN=C1NS(=O)(=O)c2ccccc21)c1cccnc1
IC50 [1]: > 69.5 µM (not active)

Cc1nc2ccc(CN(C)c3ccc(C(=O)N[C@@H](CCC(=O)O)C(=O)O)s3)cc2c(=O)[nH]1
IC50 [2]: > 10 µM (inactive) | IC50 [3]: 1 nM (active) | IC50 [4]: 2.88 nM (active) | IC50 [5]: 4.24 nM (active) | IC50 [6]: > 20 µM (inactive) | IC50 [7]: > 20 µM (inactive) | IC50 [8]: > 10 µM (inactive) | IC50 [9]: > 20 µM (inactive) | IC50 [10]: > 20 µM (inactive) | IC50 [11]: 2.3 nM (active)

Cc1cnn(C(=S)NCc2ccc(Cl)cc2)c1
IC50 [12]: > 100 µM (not active)

O=C(COc1ccc2ccccc2c1Br)Nc1cccnc1
EC50 [13]: 240 nM (active) | IC50 [14]: > 67.5 µM (inactive) | IC50 [15]: > 67.5 µM (inactive) | IC50 [16]: 5.81 µM (active) | IC50 [17]: > 138 µM (inactive)

CN(C(=O)c1cccc(COc2ccc(Cl)cc2Cl)c1)c1ccccc1
EC50 [18]: 160 nM (active) | IC50 [19]: 2.2 µM (active) | AC50 [20]: 10.6 µM (active) | EC50 [21]: 7.59 µM (active)

CCCCn1c2c(c3ccccc31)CCc1nonc1-2
IC50 [22]: > 50 µM (not active)

Source: ChEMBL document CHEMBL1201862, “PubChem BioAssay data set” (2004)
